# Experimental data published in PubChem BioAssay (NCI).
#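 1) Cells in 96-well plates. 2) Compound, 48 h, 5 concentrations. 3) Linear interpolation between surrounding doses. 4) Unreached endpoint = highest concentration. TGI denotes the concentration required for complete inhibition of growth.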
# Columns and labels:
# Test in all cases: NCI-60 cell line screen, 48 h
# 786-0 renal = system: 786-0 renal
# A498 renal = system: A498 renal
# A549 NSCLC = system: A549 NSCLC
# ACHN renal = system: ACHN renal
# BT-549 breast = system: BT-549 breast
# CAKI-1 renal = system: CAKI-1 renal
# CCRF-CEM leukemia = system: CCRF-CEM leukemia
# COLO 205 colon = system: COLO 205 colon
# DU-145 prostate = system: DU-145 prostate
# EKVX NSCLC = system: EKVX NSCLC
# HCC-2998 colon = system: HCC-2998 colon
# HCT-116 colon = system: HCT-116 colon
# HCT-15 colon = system: HCT-15 colon
# HL-60(TB) leukemia = system: HL-60(TB) leukemia
# HOP-62 NSCLC = system: HOP-62 NSCLC
# HOP-92 NSCLC = system: HOP-92 NSCLC
# HS 578T breast = system: HS 578T breast
# HT29 colon = system: HT29 colon
# IGROV1 ovarian = system: IGROV1 ovarian
# K-562 leukemia = system: K-562 leukemia
# KM12 colon = system: KM12 colon
# LOX IMVI melanoma = system: LOX IMVI melanoma
# MALME-3M melanoma = system: MALME-3M melanoma
# MCF7 breast = system: MCF7 breast
# MDA-MB-231 breast = system: MDA-MB-231 breast
# MDA-MB-435 = system: MDA-MB-435
# MDA-N = system: MDA-N
# MOLT-4 leukemia = system: MOLT-4 leukemia
# NCI-H226 lung = system: NCI-H226 lung
# NCI-H23 lung = system: NCI-H23 lung
# NCI-H460 lung = system: NCI-H460 lung
# NCI-H522 lung = system: NCI-H522 lung
# NCI/ADR-RES ovarian = system: NCI/ADR-RES ovarian
# OVCAR-3 ovarian = system: OVCAR-3 ovarian
# OVCAR-4 ovarian = system: OVCAR-4 ovarian
# OVCAR-5 ovarian = system: OVCAR-5 ovarian
# OVCAR-8 ovarian = system: OVCAR-8 ovarian
# PC-3 prostate = system: PC-3 prostate
# RPMI-8226 leukemia = system: RPMI-8226 leukemia
# RXF 393 renal = system: RXF 393 renal
# SF-268 CNS = system: SF-268 CNS
# SF-295 CNS = system: SF-295 CNS
# SF-539 CNS = system: SF-539 CNS
# SK-MEL-2 melanoma = system: SK-MEL-2 melanoma
# SK-MEL-28 melanoma = system: SK-MEL-28 melanoma
# SK-MEL-5 melanoma = system: SK-MEL-5 melanoma
# SK-OV-3 ovarian = system: SK-OV-3 ovarian
# SN12C renal = system: SN12C renal
# SNB-75 CNS = system: SNB-75 CNS
# SR leukemia = system: SR leukemia
# SW-620 colon = system: SW-620 colon
# T-47D breast = system: T-47D breast
# TK-10 renal = system: TK-10 renal
# U251 CNS = system: U251 CNS
# UACC-257 melanoma = system: UACC-257 melanoma
# UACC-62 melanoma = system: UACC-62 melanoma
# UO-31 renal = system: UO-31 renal
# M14 melanoma = system: M14 melanoma
# SNB-19 CNS = system: SNB-19 CNS
smiles,measurement,setting,value
CN(/N=C(\C(=O)O)c1ccccc1)C1=NCCCCN1,TGI,786-0 renal,> 100 µM
same,TGI,A498 renal,> 100 µM
same,TGI,A549 NSCLC,> 100 µM
same,TGI,ACHN renal,> 100 µM
same,TGI,BT-549 breast,> 100 µM
same,TGI,CAKI-1 renal,> 100 µM
same,TGI,CCRF-CEM leukemia,> 100 µM
same,TGI,COLO 205 colon,> 100 µM
same,TGI,DU-145 prostate,> 100 µM
same,TGI,EKVX NSCLC,> 100 µM
same,TGI,HCC-2998 colon,> 100 µM
same,TGI,HCT-116 colon,> 100 µM
same,TGI,HCT-15 colon,> 100 µM
same,TGI,HL-60(TB) leukemia,> 100 µM
same,TGI,HOP-62 NSCLC,> 100 µM
same,TGI,HOP-92 NSCLC,> 100 µM
same,TGI,HS 578T breast,> 100 µM
same,TGI,HT29 colon,> 100 µM
same,TGI,IGROV1 ovarian,> 100 µM
same,TGI,K-562 leukemia,> 100 µM
same,TGI,KM12 colon,> 100 µM
same,TGI,LOX IMVI melanoma,> 100 µM
same,TGI,MALME-3M melanoma,> 100 µM
same,TGI,MCF7 breast,> 100 µM
same,TGI,MDA-MB-231 breast,> 100 µM
same,TGI,MDA-MB-435,> 100 µM
same,TGI,MDA-N,> 100 µM
same,TGI,MOLT-4 leukemia,> 100 µM
same,TGI,NCI-H226 lung,> 100 µM
same,TGI,NCI-H23 lung,> 100 µM
same,TGI,NCI-H460 lung,> 100 µM
same,TGI,NCI-H522 lung,> 100 µM
same,TGI,NCI/ADR-RES ovarian,> 100 µM
same,TGI,OVCAR-3 ovarian,> 100 µM
same,TGI,OVCAR-4 ovarian,> 100 µM
same,TGI,OVCAR-5 ovarian,> 100 µM
same,TGI,OVCAR-8 ovarian,> 100 µM
same,TGI,PC-3 prostate,> 100 µM
same,TGI,RPMI-8226 leukemia,> 100 µM
same,TGI,RXF 393 renal,> 100 µM
same,TGI,SF-268 CNS,> 100 µM
same,TGI,SF-295 CNS,> 100 µM
same,TGI,SF-539 CNS,> 100 µM
same,TGI,SK-MEL-2 melanoma,> 100 µM
same,TGI,SK-MEL-28 melanoma,> 100 µM
same,TGI,SK-MEL-5 melanoma,> 100 µM
same,TGI,SK-OV-3 ovarian,> 100 µM
same,TGI,SN12C renal,> 100 µM
same,TGI,SNB-75 CNS,> 100 µM
same,TGI,SR leukemia,> 100 µM
same,TGI,SW-620 colon,> 100 µM
same,TGI,T-47D breast,> 100 µM
same,TGI,TK-10 renal,> 100 µM
same,TGI,U251 CNS,> 100 µM
same,TGI,UACC-257 melanoma,> 100 µM
same,TGI,UACC-62 melanoma,> 100 µM
same,TGI,UO-31 renal,> 100 µM
Oc1ccc(-c2nc3ccc4ccccc4c3c3c2CCCC3)c(O)c1,TGI,786-0 renal,24 µM
same,TGI,A498 renal,> 100 µM
same,TGI,A549 NSCLC,> 100 µM
same,TGI,ACHN renal,85 µM
same,TGI,BT-549 breast,> 100 µM
same,TGI,CAKI-1 renal,> 100 µM
same,TGI,COLO 205 colon,23.9 µM
same,TGI,DU-145 prostate,> 100 µM
same,TGI,EKVX NSCLC,> 100 µM
same,TGI,HCC-2998 colon,> 100 µM
same,TGI,HCT-116 colon,22.6 µM
same,TGI,HCT-15 colon,> 100 µM
same,TGI,HL-60(TB) leukemia,> 100 µM
same,TGI,HOP-62 NSCLC,> 100 µM
same,TGI,HOP-92 NSCLC,> 100 µM
same,TGI,HS 578T breast,88.9 µM
same,TGI,HT29 colon,25.4 µM
same,TGI,IGROV1 ovarian,> 56.5 µM
same,TGI,K-562 leukemia,> 100 µM
same,TGI,KM12 colon,> 100 µM
same,TGI,LOX IMVI melanoma,> 100 µM
same,TGI,M14 melanoma,35.9 µM
same,TGI,MALME-3M melanoma,> 59.1 µM
same,TGI,MCF7 breast,> 69.8 µM
same,TGI,MDA-MB-231 breast,37 µM
same,TGI,MDA-MB-435,> 63.7 µM
same,TGI,MDA-N,39.3 µM
same,TGI,MOLT-4 leukemia,> 100 µM
same,TGI,NCI-H226 lung,> 100 µM
same,TGI,NCI-H23 lung,> 100 µM
same,TGI,NCI-H460 lung,> 100 µM
same,TGI,NCI-H522 lung,41.1 µM
same,TGI,NCI/ADR-RES ovarian,> 100 µM
same,TGI,OVCAR-3 ovarian,> 100 µM
same,TGI,OVCAR-4 ovarian,> 100 µM
same,TGI,OVCAR-5 ovarian,49.1 µM
same,TGI,OVCAR-8 ovarian,> 68.1 µM
same,TGI,PC-3 prostate,> 100 µM
same,TGI,RPMI-8226 leukemia,> 100 µM
same,TGI,RXF 393 renal,> 84.3 µM
same,TGI,SF-268 CNS,> 72 µM
same,TGI,SF-295 CNS,> 74.1 µM
same,TGI,SF-539 CNS,> 73.2 µM
same,TGI,SK-MEL-2 melanoma,37.6 µM
same,TGI,SK-MEL-28 melanoma,> 50.6 µM
same,TGI,SK-MEL-5 melanoma,27.1 µM
same,TGI,SK-OV-3 ovarian,> 100 µM
same,TGI,SN12C renal,32.8 µM
same,TGI,SNB-19 CNS,71.2 µM
same,TGI,SNB-75 CNS,> 100 µM
same,TGI,SR leukemia,> 100 µM
same,TGI,SW-620 colon,> 68 µM
same,TGI,T-47D breast,> 100 µM
same,TGI,TK-10 renal,97.9 µM
same,TGI,U251 CNS,> 40.5 µM
same,TGI,UACC-257 melanoma,> 100 µM
same,TGI,UACC-62 melanoma,> 50.6 µM
same,TGI,UO-31 renal,> 100 µM
